{
  "source": "patent US20230000876A1",
  "about": "“TREATING CANCERS WITH A CYCLIN-DEPENDENT KINASE INHIBITOR” (Nuvation Bio Inc., priority 2021, published 2023)",
  "experiment": "Pharmacokinetics and brain distribution after single oral dose, rats",
  "format": "in vivo, male Sprague-Dawley rats",
  "conditions": "for Kp at 6 h / concentration at 6 h / Cmax / Tmax / concentration at 1 h / concentration at 2 h / concentration at 4 h / concentration at 8 h / concentration at 12 h / AUC(0-inf) / half-life / concentration at 24 h: male, Sprague-Dawley, rat; for Kp at 6 h: po",
  "protocol": "The pharmacokinetics and brain distribution in maleCD1 mice and Sprague-Dawley rats following a single oral (PO) dose was evaluated. The compound of formula (I) was administered once at 10 mg/kg to mice and at 1, 10, 30, and 100 mg/kg to rats. All doses, compound of formula (I) concentrations, and derived PK parameters are expressed as the free base of the compound of formula (I).\nThe in-life portion of these studies was performed by Alliance Pharma (Malvern, Pa.) according to Protocols 200107-02 (mice) and 1910158-02 (rats). Animals were assigned randomly to the dose groups and were fasted 12 hours prior to dosing. Water was available ad libitum. The compound of formula (I) (as an HCl salt) was given to male CD1 mice at 10 mg/kg single PO dose, while in Sprague-Dawley rats, the doses were 1, 10, 30, and 100 mg/kg. In both studies, the compound of formula (I) was formulated in 0.5% hydroxypropyl methylcellulose (HPMC)/0.2% Tween 80 and the dosing volume was 5 mL/kg for all dose groups.\nWhole blood was collected at 2, 4, 6, and 12 hours post dose from mice and predose and 1, 2, 4, 8, 12, and 24 hours post dose from rats into tubes containing dipotassium ethylenediaminetetraacetic acid (K2EDTA). Blood was obtained from 3 mice and 4 rats per time-point per dose level. The blood samples were processed into plasma analyzed at Alliance Pharma using the method as described below.\nThe brain tissue was collected from mice at 2, 4, 6, and 12 hours post dose and was collected from rats at 6 hours post dose given 1, 10, 30, or 100 mg/kg of the compound of formula (I). Brain tissue was obtained from 3 mice per time-point at the 10 mg/kg dose level and 4 rats per dose level at the 6-hour post dose time-point.\nBrain tissue was rinsed by phosphate-buffered saline (PBS) buffer immediately after harvest, weighed, and mixed with solvent (MeOH:H2O [volume over volume of 20:80]) with a ratio of tissue to solvent of 1:4 (weight over volume). […] After homogenization, the homogenate was aliquoted out for sample analysis.\nThe concentrations of the compound of formula (I) in the plasma and brain homogenate were determined versus a calibration curve prepared in plasma and naïve brain homogenate, respectively. Samples were deproteinized with acetonitrile containing tolbutamide as internal standard. After centrifugation, the supernatants were analyzed by liquid chromatography with tandem mass spectrometry (LC-MS/MS). Chromatography was performed with a Zorbax SB-C18 (50×2.1 mm, […]) column under gradient conditions described in Table 22. Mobile Phase A (0.1% formic acid [FA] in water) and Mobile Phase B (0.1% FA in acetonitrile) were delivered as a flow rate of 0.8 mL/min. LC-MS/MS was performed using a positive TurboIonSpray® interface on a SciexAPI 4000 and multiple-reaction monitoring (MRM) over a concentration range of 1 ng/mL to 1000 (rats) or 2000 (mice) ng/mL for the plasma and brain homogenate samples.\nThe mean plasma concentration-time data of the compound of formula (I) was used to determine the pharmacokineticparameters by standard noncompartmental methods using Phoenix® WinNonlin (version 8.2.0; Certara, Princeton, N.J.). Graphs were plotted in Prism® (version 2.3.0; GraphPad, San Diego, Calif.). Concentrations were rounded to 3 significant figures.",
  "key": {"[1]": {"conditions": "plasma, single PO 1 mg/kg (HCl salt, as free base)"}, "[2]": {"conditions": "plasma, single PO 10 mg/kg (HCl salt, as free base)"}, "[3]": {"conditions": "plasma, single PO 30 mg/kg (HCl salt, as free base)"}, "[4]": {"conditions": "plasma, single PO 100 mg/kg (HCl salt, as free base)"}},
  "note": "Read-outs that look alike come from different tables or passages of the source.",
  "data": [
    {"smiles": "CC(C)N1CCOc2c(F)cc(-c3nc(Nc4ccc(C5CCN(C)CC5)cn4)ncc3F)cc21", "note": "[Compound (I), 5-fluoro-4-(8-fluoro-4-isopropyl-3,4-dihydro-2H-benzo[b][1,4]oxazin-6-yl)-N-(5-(1-methylpiperidin-4-yl)pyridin-2-yl)pyrimidin-2-amine]", "values": [
      {"measurement": "Kp at 6 h", "setting": "brain, 1 mg/kg, single PO 1 mg/kg, 6 h, read-out: Brain:Plasma Ratio", "result": 6.3},
      {"measurement": "Kp at 6 h", "setting": "brain, 10 mg/kg, single PO 10 mg/kg, 6 h, read-out: Brain:Plasma Ratio", "result": 6.1},
      {"measurement": "Kp at 6 h", "setting": "brain, 30 mg/kg, single PO 30 mg/kg, 6 h, read-out: Brain:Plasma Ratio", "result": 11},
      {"measurement": "Kp at 6 h", "setting": "brain, 100 mg/kg, 6 hours post-dose, each dose level (1, 10, 30, 100 mg/kg PO), read-out: Brain-to-plasma concentration ratio", "result": "> 6"},
      {"measurement": "Kp at 6 h", "setting": "brain, 100 mg/kg, single PO 100 mg/kg, 6 h, read-out: Brain:Plasma Ratio", "result": 12},
      {"measurement": "concentration at 6 h", "setting": "brain, single PO 1 mg/kg, 6 h, read-out: Brain Conc", "result": 58.9, "unit": "ng/mL"},
      {"measurement": "concentration at 6 h", "setting": "brain, single PO 10 mg/kg, 6 h, read-out: Brain Conc", "result": 548, "unit": "ng/mL"},
      {"measurement": "concentration at 6 h", "setting": "brain, single PO 30 mg/kg, 6 h, read-out: Brain Conc", "result": 1970, "unit": "ng/mL"},
      {"measurement": "concentration at 6 h", "setting": "brain, single PO 100 mg/kg, 6 h, read-out: Brain Conc", "result": 2800, "unit": "ng/mL"},
      {"measurement": "Cmax", "setting": "plasma, single PO 1 mg/kg", "result": 9.37, "unit": "ng/mL"},
      {"measurement": "Tmax", "setting": "plasma, single PO 1 mg/kg", "result": 6, "unit": "h"},
      {"measurement": "concentration at 1 h", "setting": "[1]", "result": 1.52, "unit": "ng/mL"},
      {"measurement": "concentration at 2 h", "setting": "[1]", "result": 2.41, "unit": "ng/mL"},
      {"measurement": "concentration at 4 h", "setting": "[1]", "result": 4.91, "unit": "ng/mL"},
      {"measurement": "concentration at 6 h", "setting": "plasma, single PO 1 mg/kg (HCl salt, as free base), 6 h, read-out: Mean Plasma Concentration", "result": 9.37, "unit": "ng/mL"},
      {"measurement": "concentration at 8 h", "setting": "[1]", "result": 6.42, "unit": "ng/mL"},
      {"measurement": "concentration at 12 h", "setting": "[1]", "result": 4.64, "unit": "ng/mL"},
      {"measurement": "AUC(0-inf)", "setting": "plasma, single PO 10 mg/kg", "result": 1080, "unit": "ng·h/mL"},
      {"measurement": "Cmax", "setting": "plasma, single PO 10 mg/kg", "result": 90.4, "unit": "ng/mL"},
      {"measurement": "Tmax", "setting": "plasma, single PO 10 mg/kg", "result": 6, "unit": "h"},
      {"measurement": "half-life", "setting": "plasma, single PO 10 mg/kg", "result": 452, "unit": "min"},
      {"measurement": "concentration at 1 h", "setting": "[2]", "result": 8.45, "unit": "ng/mL"},
      {"measurement": "concentration at 2 h", "setting": "[2]", "result": 25.9, "unit": "ng/mL"},
      {"measurement": "concentration at 4 h", "setting": "[2]", "result": 51.6, "unit": "ng/mL"},
      {"measurement": "concentration at 6 h", "setting": "plasma, single PO 10 mg/kg (HCl salt, as free base), 6 h, read-out: Mean Plasma Concentration", "result": 90.4, "unit": "ng/mL"},
      {"measurement": "concentration at 8 h", "setting": "[2]", "result": 52.5, "unit": "ng/mL"},
      {"measurement": "concentration at 12 h", "setting": "[2]", "result": 46.3, "unit": "ng/mL"},
      {"measurement": "concentration at 24 h", "setting": "plasma, single PO 10 mg/kg (HCl salt, as free base), 24 h", "result": 12.9, "unit": "ng/mL"},
      {"measurement": "AUC(0-inf)", "setting": "plasma, single PO 30 mg/kg", "result": 3870, "unit": "ng·h/mL"},
      {"measurement": "Cmax", "setting": "plasma, single PO 30 mg/kg", "result": 180, "unit": "ng/mL"},
      {"measurement": "Tmax", "setting": "plasma, single PO 30 mg/kg", "result": 6, "unit": "h"},
      {"measurement": "half-life", "setting": "plasma, single PO 30 mg/kg", "result": 804, "unit": "min"},
      {"measurement": "concentration at 1 h", "setting": "[3]", "result": 43.2, "unit": "ng/mL"},
      {"measurement": "concentration at 2 h", "setting": "[3]", "result": 73.1, "unit": "ng/mL"},
      {"measurement": "concentration at 4 h", "setting": "[3]", "result": 136, "unit": "ng/mL"},
      {"measurement": "concentration at 6 h", "setting": "plasma, single PO 30 mg/kg (HCl salt, as free base), 6 h, read-out: Mean Plasma Concentration", "result": 180, "unit": "ng/mL"},
      {"measurement": "concentration at 8 h", "setting": "[3]", "result": 155, "unit": "ng/mL"},
      {"measurement": "concentration at 12 h", "setting": "[3]", "result": 117, "unit": "ng/mL"},
      {"measurement": "concentration at 24 h", "setting": "plasma, single PO 30 mg/kg (HCl salt, as free base), 24 h", "result": 66.4, "unit": "ng/mL"},
      {"measurement": "Cmax", "setting": "plasma, single PO 100 mg/kg", "result": 243, "unit": "ng/mL"},
      {"measurement": "Tmax", "setting": "plasma, single PO 100 mg/kg", "result": 6, "unit": "h"},
      {"measurement": "concentration at 1 h", "setting": "[4]", "result": 81.2, "unit": "ng/mL"},
      {"measurement": "concentration at 2 h", "setting": "[4]", "result": 142, "unit": "ng/mL"},
      {"measurement": "concentration at 4 h", "setting": "[4]", "result": 151, "unit": "ng/mL"},
      {"measurement": "concentration at 6 h", "setting": "plasma, single PO 100 mg/kg (HCl salt, as free base), 6 h, read-out: Mean Plasma Concentration", "result": 243, "unit": "ng/mL"},
      {"measurement": "concentration at 8 h", "setting": "[4]", "result": 170, "unit": "ng/mL"},
      {"measurement": "concentration at 12 h", "setting": "[4]", "result": 193, "unit": "ng/mL"},
      {"measurement": "concentration at 24 h", "setting": "plasma, single PO 100 mg/kg (HCl salt, as free base), 24 h", "result": 224, "unit": "ng/mL"},
      {"measurement": "Mean Plasma Concentration", "setting": "single PO 1 mg/kg (HCl salt, as free base), 24 h", "result": "BQL"}
    ]}
  ]
}
